Assays:
[1] = test system: Mycobacterium tuberculosis Erdman (autoluminescent); assay: GRinf, maximum normalised growth rate inhibition (three-drug combination) (unitless (-1 to 1)); higher = less effect (negative = killing)
Protocol: (§1)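 DiaMOND equipotent three-drug combination dose responses (10 doses, 1.5- or 2-fold spacing, centred on IC90) against autoluminescent M. tuberculosis Erdman in 8 in vitro models. Read-out is OD600, or luminescence for the intracellular and dormancy models, normalised to untreated wells. Hill-fit Einf, AUC25 and GRinf are potency metrics; FIC50 and FIC90 are total Loewe fractional inhibitory concentrations as log2 (negative = synergy).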

[2] = test system: Mycobacterium tuberculosis Erdman (autoluminescent); assay: Einf, fitted maximum growth inhibition of three-drug combination (fraction); higher = stronger maximal inhibition
Protocol: as §1

[3] = test system: Mycobacterium tuberculosis Erdman (autoluminescent); assay: total FIC90 (Loewe) at 90% inhibition, three-drug combination (log2); higher = more antagonistic
Protocol: as §1

[4] = test system: Mycobacterium tuberculosis Erdman (autoluminescent); assay: AUC25, normalised area under dose response up to IC25 (three-drug combination) (fraction (0-1)); higher = more potent at low dose
Protocol: as §1

[5] = test system: Mycobacterium tuberculosis Erdman (autoluminescent); assay: total FIC50 (Loewe) at 50% inhibition, three-drug combination (log2); higher = more antagonistic
Protocol: as §1

CC(C)/N=c1\cc2n(-c3ccc(Cl)cc3)c3ccccc3nc-2cc1Nc1ccc(Cl)cc1 [clofazimine] + CC[C@@H](CO)NCCN[C@@H](CC)CO [ethambutol] + CO[C@H]1/C=C/O[C@@]2(C)Oc3c(C)c(O)c4c(O)c(c(/C=N/N5CCN(C)CC5)c(O)c4c3C2=O)NC(=O)/C(C)=C\C=C\[C@H](C)[C@H](O)[C@@H](C)[C@@H](O)[C@@H](C)[C@H](OC(C)=O)[C@@H]1C [rifampicin]
Settings | AUC25, [4] | Einf, [2] | GRinf, [1] | total FIC50, [5] | total FIC90, [3]
in vitro model: acidic pH 5.7, time point: constant (~7 days, model-specific) | 0.0857 | 0.88 | -0.0788 | -0.0594 | –
in vitro model: acidic pH 5.7, time point: terminal (~4-5 doublings, model-specific) | 0.0645 | 0.973 | -0.112 | 0.213 | -0.308
in vitro model: intracellular J774, time point: constant = terminal | – | 0.969 | -0.295 | – | -2.37

Settings | AUC25, [4] | Einf, [2] | GRinf, [1] | total FIC50, [5] | total FIC90, [3]
in vitro model: butyrate, time point: constant (~7 days, model-specific) | 0.0971 | 0.95 | -0.114 | 0.276 | –
in vitro model: butyrate, time point: terminal (~4-5 doublings, model-specific) | 0.1 | 0.982 | -0.114 | 0.306 | 0.441
in vitro model: cholesterol 0.05 mM, time point: constant (~7 days, model-specific) | 0.126 | 0.684 | -0.277 | – | –
in vitro model: cholesterol 0.05 mM, time point: terminal (~4-5 doublings, model-specific) | 0.0974 | 0.785 | 0.17 | 2.31 | –
in vitro model: cholesterol-high 0.2 mM, time point: constant (~7 days, model-specific) | 0.0508 | 0.93 | -0.277 | 0.891 | –
in vitro model: cholesterol-high 0.2 mM, time point: terminal (~4-5 doublings, model-specific) | 0.0801 | 1 | -0.923 | 1.24 | 1.32
in vitro model: dormancy (butyrate + nitrate, low O2), time point: constant (~7 days, model-specific) | 0.0958 | 0.828 | 0.515 | 0.137 | –
in vitro model: dormancy (butyrate + nitrate, low O2), time point: terminal (~4-5 doublings, model-specific) | 0.0873 | 0.991 | -0.158 | 0.0335 | -0.232
in vitro model: standard 7H9 glycerol, time point: constant = terminal | 0.0958 | 0.922 | 0.048 | -0.0461 | –
in vitro model: valerate, time point: constant (~7 days, model-specific) | 0.0993 | 0.858 | 0.045 | 0.749 | –
in vitro model: valerate, time point: terminal (~4-5 doublings, model-specific) | 0.0696 | 0.929 | 0.036 | 0.485 | -0.638

CC(C)/N=c1\cc2n(-c3ccc(Cl)cc3)c3ccccc3nc-2cc1Nc1ccc(Cl)cc1 [clofazimine] + CC[C@@H](CO)NCCN[C@@H](CC)CO [ethambutol] + COc1c(N2C[C@@H]3CCCN[C@@H]3C2)c(F)cc2c(=O)c(C(=O)O)cn(C3CC3)c12 [moxifloxacin]
Settings | AUC25, [4] | Einf, [2] | GRinf, [1] | total FIC50, [5] | total FIC90, [3]
in vitro model: acidic pH 5.7, time point: constant (~7 days, model-specific) | 0.115 | 0.672 | -0.00432 | 1.25 | –
in vitro model: acidic pH 5.7, time point: terminal (~4-5 doublings, model-specific) | 0.0596 | 0.925 | -0.127 | 0.64 | -0.564
in vitro model: intracellular J774, time point: constant = terminal | – | 0.966 | -0.457 | – | -0.92

Settings | AUC25, [4] | Einf, [2] | GRinf, [1] | total FIC50, [5] | total FIC90, [3]
in vitro model: butyrate, time point: constant (~7 days, model-specific) | 0.11 | 0.96 | -0.103 | 0.505 | –
in vitro model: butyrate, time point: terminal (~4-5 doublings, model-specific) | 0.0834 | 0.979 | -0.104 | 0.581 | 0.553
in vitro model: cholesterol 0.05 mM, time point: constant (~7 days, model-specific) | 0.123 | 0.651 | -0.615 | – | –
in vitro model: cholesterol 0.05 mM, time point: terminal (~4-5 doublings, model-specific) | 0.117 | 0.885 | -0.144 | 1.19 | –
in vitro model: cholesterol-high 0.2 mM, time point: constant (~7 days, model-specific) | 0.0933 | 0.95 | -0.699 | 0.429 | –
in vitro model: cholesterol-high 0.2 mM, time point: terminal (~4-5 doublings, model-specific) | 0.0951 | 1 | -0.973 | 0.534 | 0.957
in vitro model: dormancy (butyrate + nitrate, low O2), time point: constant (~7 days, model-specific) | 0.0862 | 0.817 | 0.451 | 0.137 | –
in vitro model: dormancy (butyrate + nitrate, low O2), time point: terminal (~4-5 doublings, model-specific) | 0.113 | 0.977 | -0.415 | 0.0118 | 0.798
in vitro model: standard 7H9 glycerol, time point: constant = terminal | 0.0915 | 0.971 | -0.184 | 0.258 | 0.732
in vitro model: valerate, time point: constant (~7 days, model-specific) | 0.132 | 0.864 | -0.0325 | 0.987 | –
in vitro model: valerate, time point: terminal (~4-5 doublings, model-specific) | 0.0712 | 0.903 | 0.0757 | 0.489 | -1.39

CC(C)/N=c1\cc2n(-c3ccc(Cl)cc3)c3ccccc3nc-2cc1Nc1ccc(Cl)cc1 [clofazimine] + CC[C@@H](CO)NCCN[C@@H](CC)CO [ethambutol] + NC(=O)c1cnccn1 [pyrazinamide]
Settings | AUC25, [4] | Einf, [2] | GRinf, [1] | total FIC50, [5] | total FIC90, [3]
in vitro model: acidic pH 5.7, time point: constant (~7 days, model-specific) | 0.112 | 0.725 | -0.183 | -0.812 | –
in vitro model: acidic pH 5.7, time point: terminal (~4-5 doublings, model-specific) | 0.0918 | 0.954 | -0.232 | 0.156 | -0.781
in vitro model: intracellular J774, time point: constant = terminal | – | 1 | -0.398 | – | -0.408

Settings | AUC25, [4] | Einf, [2] | GRinf, [1] | total FIC50, [5] | total FIC90, [3]
in vitro model: butyrate, time point: constant (~7 days, model-specific) | 0.1 | 0.913 | -0.122 | -0.0529 | –
in vitro model: butyrate, time point: terminal (~4-5 doublings, model-specific) | 0.075 | 0.953 | -0.0327 | 0.0941 | -0.127
in vitro model: cholesterol 0.05 mM, time point: constant (~7 days, model-specific) | 0.147 | 0.758 | -0.487 | – | –
in vitro model: cholesterol 0.05 mM, time point: terminal (~4-5 doublings, model-specific) | 0.123 | 0.86 | -0.157 | 1.39 | –
in vitro model: cholesterol-high 0.2 mM, time point: constant (~7 days, model-specific) | 0.1 | 0.955 | -0.718 | 0.509 | –
in vitro model: cholesterol-high 0.2 mM, time point: terminal (~4-5 doublings, model-specific) | 0.0851 | 0.998 | -0.902 | 0.581 | 0.758
in vitro model: dormancy (butyrate + nitrate, low O2), time point: constant (~7 days, model-specific) | 0.0979 | 0.826 | 0.349 | -0.344 | –
in vitro model: dormancy (butyrate + nitrate, low O2), time point: terminal (~4-5 doublings, model-specific) | 0.124 | 0.999 | -0.842 | 0.325 | 1.52
in vitro model: standard 7H9 glycerol, time point: constant = terminal | 0.109 | 0.939 | -0.163 | 0.315 | –
in vitro model: valerate, time point: constant (~7 days, model-specific) | 0.117 | 0.792 | 0.253 | 0.627 | –
in vitro model: valerate, time point: terminal (~4-5 doublings, model-specific) | 0.0625 | 0.898 | 0.205 | 0.395 | –
